Measurements as given in patent publication US9745328B2, “Flap modulators” (JANSSEN PHARMACEUTICA NV, priority 2013, dated 2017).
pKi: −log10 of the molar value. Counter-ions that a name gives are not always drawn.

The compounds below were run against human FLAP (Homo sapiens (Human), UniProt P20292) (assay: FLAP binding assay (HTRF format)). Conditions: Table 6 (additional runs), human FLAP wild type.
Protocol: The ability of the compounds of the present invention to treat a FLAP-mediated disease and/or disorder, or associated symptoms or complications thereof, was determined using the following procedures. Binding assay data represent the average value obtained from two different assay plates, with samples run in duplicate on each plate. Human whole blood assay data represent a single replicate on an assay plate using whole blood from at least one healthy donor.
Data are expressed as a HTRF ratio.

human FLAP, sequence (P20292 whole entry): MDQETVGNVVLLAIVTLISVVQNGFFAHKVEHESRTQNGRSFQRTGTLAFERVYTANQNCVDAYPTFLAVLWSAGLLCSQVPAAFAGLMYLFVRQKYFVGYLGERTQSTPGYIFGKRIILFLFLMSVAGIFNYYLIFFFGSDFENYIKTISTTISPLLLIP

pKi	SMILES
7.88	NS(=O)(=O)c1ccccc1-c1ccc(-c2cnc3[nH]ccc3c2)c(F)c1 [Example 368, 3′-Fluoro-4′-(1H-pyrrolo[2,3-b]pyridin 5-yl)biphenyl-2-sulfonamide]
7.45	Nc1ncc(-c2ccc(-c3ccccc3S(=O)(=O)N3CC(O)C3)cc2F)cn1 [Example 265, 1-{[4′-(2-Aminopyrimidin-5-yl)-3′-fluorobiphenyl-2-yl]sulfonyl}azetidin-3-ol trifluoroacetic acid salt]
8.80	CC(C)(C)NS(=O)(=O)c1ccccc1-c1ccc(-c2cnc(N)nc2)c(F)c1 [Example 305, 4′-(2-aminopyrimidin-5-yl)-N-(tert-butyl)-3′-fluoro[1,1′-biphenyl]-2-sulfonamide trifluoroacetic acid salt]
6.30	Nc1ncc(-c2ccc(-c3ccccc3S(=O)(=O)Cc3nc(C4CC4)no3)cc2F)cn1 [Example 321, 5-(2′-{[(3-Cyclopropyl-1,2,4-oxadiazol-5-yl)methyl]sulfonyl}-3-fluorobiphenyl-4-yl)pyrimidin-2-amine]
8.89	Nc1cnc(-c2ccc(-c3ccccc3S(=O)(=O)N[C@H]3CC[C@@H](N)CC3)cc2F)cn1 [Example 134, N-(4-Aminocyclohexyl)-4′-(5-aminopyrazin-2-yl)-3′-fluorobiphenyl-2-sulfonamide]
8.07	Cc1cccc(-c2ccc(-c3cnc(N)nc3)c(F)c2)c1S(=O)(=O)NC(C)(C)C [Example 287, 4′-(2-Aminopyrimidin-5-yl)-N-tert-butyl-3′-fluoro-3-methylbiphenyl-2-sulfonamide trifluoroacetic acid salt]
8.07	Nc1cnc(-c2ccc(-c3ccccc3S(=O)(=O)N3C[C@@H]4C(N)[C@@H]4C3)cc2F)cn1 (stereo partly drawn) [Example 143, (1R,5S)-3-((4′-(5-aminopyrazin-2-yl)-3′-fluoro-[1,1′-biphenyl]-2-yl)sulfonyl)-3-azabicyclo[3.1.0]hexan-6-amine]
7.80	Nc1cnc(-c2ccc(-c3ccccc3S(=O)(=O)N3CCN4CCCC4C3)cc2F)cn1 (racemic) [Example 61, racemic 5-[3-Fluoro-2′-(hexahydropyrrolo[1,2-a]pyrazin-2(1H)-ylsulfonyl)biphenyl-4-yl]pyrazin-2-amine]
9.22	CC(CO)NS(=O)(=O)c1ccccc1-c1ccc(-c2cnc3[nH]ccc3n2)c(F)c1 (stereo in doubt) [Example 378, 3′-Fluoro-N-[(1R)-2-hydroxy-1-methylethyl]-4′-(5H-pyrrolo[2,3-b]pyrazin-2-yl)biphenyl-2-sulfonamide]
8.89	CC(C)(C)OC(=O)NCCNS(=O)(=O)c1ccccc1-c1ccc(-c2cnc(N)cn2)c(F)c1 [Example 151]
8.60	O=C1NCC[C@@H]1NS(=O)(=O)c1ccccc1-c1ccc(-c2cnc3[nH]ccc3c2)c(F)c1 [Example 364, 3′-Fluoro-N-[(3S)-2-oxopyrrolidin-3-yl]-4′-(1H-pyrrolo[2,3-b]pyridin-5-yl)biphenyl-2-sulfonamide]
8.48	Nc1ncc(-c2ccc(-c3ccccc3S(=O)(=O)Nc3ccccc3)cc2F)cn1 [Example 285, 4′-(2-Aminopyrimidin-5-yl)-3′-fluoro-N-phenylbiphenyl-2-sulfonamide trifluoroacetic acid salt]
6.90	Nc1ncc(-c2ccc(-c3ccccc3S(=O)(=O)N[C@H]3CCNC3=O)cc2F)cn1 [Example 263, 4′-(2-Aminopyrimidin-5-yl)-3′-fluoro-N-[(3S)-2-oxopyrrolidin-3-yl]biphenyl-2-sulfonamide]
8.68	Nc1cnc(-c2ccc(-c3ccccc3S(=O)(=O)NC3Cc4ccccc4C3)cc2F)cn1 [Example 21, 4′-(5-Aminopyrazin-2-yl)-N-(2,3-dihydro-1H-inden-2-yl)-3′-fluorobiphenyl-2-sulfonamide]
8.44	N#CCCN(C1CC1)S(=O)(=O)c1ccccc1-c1ccc(-c2cnc(N)cn2)c(F)c1 [Example 172, 4′-(5-Aminopyrazin-2-yl)-N-(2-cyanoethyl)-N-cyclopropyl-3′-fluorobiphenyl-2-suifonamide]
8.46	Nc1cnc(-c2ccc(-c3ccccc3S(=O)(=O)NC3CCCC3)cc2F)cn1 [Example 14, 4′-(5-Aminopyrazin-2-yl)-N-cyclopentyl-3′-fluorobiphenyl-2-sulfonamide]
8.62	N#CCCN1CCN(S(=O)(=O)c2ccccc2-c2ccc(-c3cnc(N)cn3)c(F)c2)CC1 [Example 174, 3-(4-{[4′-(5-Aminopyrazin-2-yl)-3′-fluoroblphenyl-2-yl]sulfonyl}piperazin-1-yl)propanenitrile]
9.40	C[C@H](CO)NS(=O)(=O)c1ccccc1-c1ccc(-c2cnc3c(c2)OCCN3)c(F)c1 [Example 390, 4′-(3,4-Dihydro-2H-pyrido[3,2-b][1,4]oxazin-7-yl)-3′-fluoro-N-[(1R)-2-hydroxy-1-methylethyl]biphenyl-2-sulfonamide]
9.15	Nc1cnc(-c2ccc(-c3ccccc3S(=O)(=O)N[C@H](CO)Cc3ccccc3)cc2F)cn1 [Example 116, (3),4-(5-aminopyrazin-2-yl)-3′-fluoro-N-(1-hydroxy-3-phenylpropan-2-yl)-[1,1′-biphenyl]-2-sulfonamide]
8.92	Nc1cnc(-c2ccc(-c3ccccc3S(=O)(=O)N[C@@H]3CCc4ccccc43)cc2F)cn1 [Example 23, (R)-4′-(5-Aminopyrazin-2-yl|)-N-[(1R)-2,3-dihydro-1H-inden-1-yl]-3′-fluorobiphenyl-2-sulfonamide]
8.89	CNS(=O)(=O)c1ccccc1-c1ccc(-c2cnc3[nH]ccc3n2)c(F)c1 [Example 379, 3′-Fluoro-N-methyl-4′-(5H-pyrrolo[2,3-b]pyrazin-2-yl)biphenyl-2-sulfonamide]
8.05	Nc1cnc(-c2ccc(-c3ccccc3S(=O)(=O)N3CC[C@H](O)C3)cc2F)cn1 [Example 184, (3S)-1-{[4′-(5-Aminopyrazin-2-yl)-3′-fluorobiphenyl-2-yl]sulfonyl}pyrrolidin-3-ol]

Same assay, conditions: human FLAP wild type, Table 6 (additional runs)

pKi	SMILES
6.79	Cc1cc(N)nc(Oc2ccccc2-c2ccc(-c3cnc(N)nc3)c(F)c2)n1 [Example 617, 5-{2′-[(4-Amino-6-methylpyrimidin-2-yl)oxy]-3-fluorobiphenyl-4-yl}pyrimidin-2-amine]
9.30	Cc1nc(-c2ccc(-c3ccccc3S(=O)(=O)NC(C)(C)C)cc2F)cnc1N [Example 445, 4′-(5-Amino-6-methylpyrazin-2-yl)-N-tert-butyl-3′-fluorobiphenyl-2-sulfonamide]
8.36	Nc1cc(Oc2cc(C(F)(F)F)ccc2-c2ccc(-c3cnc(N)nc3)c(F)c2)ncn1 [Example 561, 5-{2′-[(6-Aminopyrimidin-4-yl)oxy]-3-fluoro-4′-(trifluoromethyl)biphenyl-4-yl}pyrimidin-2-amine]
7.13	Nc1ncc(-c2ccc(-c3cccnc3S(=O)(=O)C3CCS(=O)(=O)CC3)cc2F)cn1 [Example 819, 4-((3-(4-(2-aminopyrimidin-5-yl)-3-fluorophenyl)pyridine-2-yl)sulfonyl)tetrahydro-2H-thiopyran 1,1-dioxide]
~5.60	CC(C)(C)NS(=O)(=O)c1ccccc1-c1ccc(-c2ccc3[nH]nc(N)c3c2)c(F)c1 [Example 597, 4′-(3-Amino-1H-indazol-5-yl)-N-tert-butyl-3′-fluorobiphenyl-2-sulfonamide]
7.52	C[C@@H]1COCCN1C(=O)c1ccccc1-c1ccc(-c2cnc(N)cn2)c(F)c1 [Example 775, 5-(3-Fluoro-2′-{[(3R)-3-methylmorpholin-4-yl]carbonyl}biphenyyl-4-yl)pyrazin-2-amine]
6.92	Nc1cnc(-c2ccc(-c3ccccc3S(N)(=O)=O)c(F)c2F)cn1 [Example 464, 4′-(5-Aminopyrazin-2-yl)-2′,3′-difluorobiphenyl-2-sulfonamide]
7.96	CC(O)CNS(=O)(=O)c1ccccc1-c1ccc(-c2cnc(N)c(C#N)n2)c(F)c1 (stereo in doubt) [Example 415, 4′-(5-Amine-6-cyanopyrazin-2-yl)-3′-fluoro-N-[(R)-2-hydroxypropyl]biphenyl-2-sulfonamide]
8.80	Nc1cnc(-c2ccc(-c3ccc(C(F)(F)F)cc3Oc3ccnc(N)n3)cc2F)cn1 [Example 555, 4-{[4′-(5-Aminopyrazin-2-yl)-3′-fluoro-4-(trifluoromethyl)biphenyl-2-yl]oxy}pyrimidin-2-amine]
6.82	C[C@H]1CN(C(=O)c2ccccc2-c2ccc(-c3cnc(N)cn3)c(F)c2)CCO1 [Example 776, 5-(3-Fluoro-2′-{[(2S)-2-methylmorpholin-4-yl]carbonyl}biphenyl-4-yl)pyrazin-2-amine]
6.64	Nc1cnc(-c2ccc(-c3cccnc3OC3CCS(=O)(=O)CC3)cc2F)cn1 [Example 647, 5-(4-{2-[(1,1-Dioxidotetrahydro-2H-thiopyran4-yl)oxy]pyridin-3-yl}-2-fluorophenyl)pyrazin-2-amine]
~6.59	CC(C)(C)NS(=O)(=O)c1ccccc1-c1ccc(-c2cnc(N)nc2)c(F)c1F [Example 466, 4′-(2-Aminopyrimidin-5-yl)-N-tert-butyl-2′,3′-difluorobipenyl-2-sulfonamide trifluoroacetic acid salt]
7.36	CC(C)(C)NS(=O)(=O)c1ccccc1-c1ccc(-c2ccc(N)cn2)c(F)c1 [Example 427, 4′-(5-Aminepyridin-2-yl)-N-tert-butyl-3′-fluoro-biphenyl-2-sulfonamide]
8.96	CC(C)(C)NS(=O)(=O)c1ccccc1-c1ccc(-c2cnc(N)c(C#N)n2)c(F)c1 [Example 434, 4′-(5-Amino-6-cyanopyrazin-2-yl)-N-tert-butyl-3′-fluorobiphenyl-2-sulfonamide]
8.89	Nc1nccc(Oc2ccccc2-c2ccc(-c3cnc4[nH]ccc4c3)c(F)c2)n1 [Example 523, 4-{[3′-Fluoro-4′-(1H-pyrrolo[2,3-b]pyridin-5-yl)biphenyl-2-yl]oxy}pyrimidin-2-amine]

Same assay, conditions: human FLAP wild type, a calculated value of 0.000 indicates Ki less than 1 nM

pKi	SMILES
> 9.00	C[C@H](CO)NS(=O)(=O)c1ccccc1-c1ccc(-c2cnc3c(c2)OCCN3)c(F)c1 [Example 390, 4′-(3,4-Dihydro-2H-pyrido[3,2-b][1,4]oxazin-7-yl)-3′-fluoro-N-[(1R)-2-hydroxy-1-methylethyl]biphenyl-2-sulfonamide]
